From ChEMBL document CHEMBL1201862, “PubChem BioAssay data set” (2004)
Values joined by “and” are separate entries in the source; they are usually repeats but may differ in a detail not shown here. Identical values can stand only once.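 Grown in 96-well plates, cells were treated for 48 hours with each compound at five concentrations. Insufficient inhibition: endpoint recorded as highest concentration tested. GI50: concentration for 50% inhibition of growth.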 Active and inactive are the calls of the source. Cut-off read from the data, not from the text of the source: active = GI50 up to about 1.1 µM and inactive = higher.

Tests used:
Assay in all cases: NCI-60 cell line screen, 48 h
[1] = test system: HCT-116
[2] = test system: HT-29
[3] = test system: K562
[4] = test system: LOX IMVI
[5] = test system: MDA-N
[6] = test system: MOLT-4
[7] = test system: NCI-H460
[8] = test system: OVCAR-4
[9] = test system: SF-268
[10] = test system: SF-295
[11] = test system: SW-620
[12] = test system: TK-10
[13] = test system: U-251
[14] = test system: UACC-257
[15] = test system: COLO 205
[16] = test system: HL-60
[17] = test system: SF-539

Structure (SMILES)	GI50 [1]	GI50 [2]	GI50 [3]	GI50 [4]	GI50 [5]	GI50 [6]	GI50 [7]	GI50 [8]	GI50 [9]	GI50 [10]	GI50 [11]	GI50 [12]	GI50 [13]	GI50 [14]	GI50 [15]	GI50 [16]	GI50 [17]
O=C(N/N=C\c1cccc(O)c1)c1ccncc1	> 100 µM (inactive)	> 100 µM (inactive)	> 100 µM (inactive)	> 100 µM (inactive)	> 100 µM (inactive)	> 100 µM (inactive)	> 100 µM (inactive)	> 100 µM (inactive)	> 100 µM (inactive)	> 100 µM (inactive)	> 100 µM (inactive)	> 100 µM (inactive)	> 100 µM (inactive)	> 100 µM (inactive)			
CN(Cc1cccc2ccccc12)Cc1cccc2ccccc12	13.4 µM (inactive)	15.4 µM (inactive)	35.1 µM (inactive)	34.3 µM (inactive)		15.3 µM (inactive)	40.6 µM (inactive)	36.1 µM (inactive)	41.6 µM (inactive)	26.7 µM (inactive)	20.6 µM (inactive)	> 100 µM (inactive)	22.6 µM (inactive)	50.1 µM (inactive)	17.8 µM (inactive)	13.4 µM (inactive)	23.8 µM (inactive)
c1csc(C(NC2=NCCO2)C2CC2)c1 (stereo unspecified)	> 100 µM (inactive)	83.9 µM (inactive)		> 100 µM (inactive)	> 100 µM (inactive)	> 100 µM (inactive)	> 100 µM (inactive)	> 100 µM (inactive)		> 100 µM (inactive)	> 100 µM (inactive)		> 100 µM (inactive)		> 100 µM (inactive)		> 100 µM (inactive)
CC(=O)c1c(-c2cccc3ccccc23)c(C#N)c(=S)n(C2OC(CO)C(O)C(O)C2O)c1C (stereo unspecified)	> 100 µM (inactive)	> 100 µM (inactive)	43.9 µM (inactive) and 71.6 µM (inactive)	> 100 µM (inactive)	50.1 µM (inactive)	38.9 µM (inactive) and 49.3 µM (inactive)	> 100 µM (inactive)	> 100 µM (inactive)	> 100 µM (inactive)	> 100 µM (inactive)	> 100 µM (inactive)	> 100 µM (inactive)		69 µM (inactive)	> 100 µM (inactive)		
COc1ccc(N2C(=O)/C(=C\c3ccccc3)SC2c2cc(OC)c(OC)c(OC)c2)cc1 (stereo unspecified)	32.1 µM (inactive)	96.6 µM (inactive)	28.5 µM (inactive)	56.9 µM (inactive)	16.9 µM (inactive)	65.6 µM (inactive)		82.4 µM (inactive)	> 100 µM (inactive)	> 100 µM (inactive)		> 100 µM (inactive)	43.9 µM (inactive)	> 100 µM (inactive)	74.1 µM (inactive)		
Cn1c(=O)c2c(nc3n2CCCC(=O)N3CCCCl)n(C)c1=O	> 100 µM (inactive)	> 100 µM (inactive)	> 100 µM (inactive)	> 100 µM (inactive)	> 100 µM (inactive)	> 100 µM (inactive)	> 100 µM (inactive)	> 100 µM (inactive)	> 100 µM (inactive)	> 100 µM (inactive)	> 100 µM (inactive)	> 100 µM (inactive)	> 100 µM (inactive)	> 100 µM (inactive)	> 100 µM (inactive)	> 100 µM (inactive)	
N[C@@H]1C[C@H](N)c2c(Cl)sc(Cl)c21	> 100 µM (inactive)		> 100 µM (inactive)	> 100 µM (inactive)	> 100 µM (inactive)	> 100 µM (inactive)	> 100 µM (inactive)	> 100 µM (inactive)		> 100 µM (inactive)	> 100 µM (inactive)		> 100 µM (inactive)	> 100 µM (inactive)	> 100 µM (inactive)		> 100 µM (inactive)
COc1cc2c3c(c4cc(OC)c(OC)cc4c2cc1OC)C(=O)C1CCC(=O)N1C3 (stereo unspecified)			14 µM (inactive)	24.9 µM (inactive)		3.27 µM (inactive)	13.8 µM (inactive)	12.8 µM (inactive)	22.2 µM (inactive)	21.6 µM (inactive)	15.5 µM (inactive)	12.8 µM (inactive)	26.3 µM (inactive)	41.9 µM (inactive)	24.5 µM (inactive)	41.3 µM (inactive)	10.9 µM (inactive)
CNC(=O)OC(COC)CN1CCN(c2ccccc2C)CC1 (stereo unspecified)	> 10 µM (inactive)	> 10 µM (inactive)	> 10 µM (inactive)	> 10 µM (inactive)		> 10 µM (inactive)	> 10 µM (inactive)	> 10 µM (inactive)	> 10 µM (inactive)	> 10 µM (inactive)	> 10 µM (inactive)	> 10 µM (inactive)	> 10 µM (inactive)	> 10 µM (inactive)	> 10 µM (inactive)	> 10 µM (inactive)	> 10 µM (inactive)
ClCCCN(CCCCl)c1ccc(/C=N/c2cccc(Cl)c2)cc1	32.5 µM (inactive)	23.6 µM (inactive)	11.8 µM (inactive)	7.57 µM (inactive)		14.4 µM (inactive)	9.55 µM (inactive)	9.75 µM (inactive)	21.7 µM (inactive)	15 µM (inactive)	12.9 µM (inactive)	4.48 µM (inactive)	26.9 µM (inactive)	29.4 µM (inactive)	47.6 µM (inactive)	12.6 µM (inactive)	53.2 µM (inactive)
CN(C)CCNC(=O)c1cccc2c(NCC(=O)O)c3ccccc3nc12	4.67 µM (inactive)	3.07 µM (inactive)	14 µM (inactive)	4.97 µM (inactive)	14 µM (inactive)	4.08 µM (inactive)		9.82 µM (inactive)	11.5 µM (inactive)	10.9 µM (inactive)	6.62 µM (inactive)	31 µM (inactive)	24.5 µM (inactive)		5.21 µM (inactive)	> 100 µM (inactive)	
CC(C)C[P+](c1ccccc1)(c1ccccc1)c1ccccc1	4.3 µM (inactive)	3.64 µM (inactive)	2.28 µM (inactive)	11.3 µM (inactive)		3.57 µM (inactive)	5.89 µM (inactive)	12.1 µM (inactive)	10.3 µM (inactive)	13.2 µM (inactive)	5.87 µM (inactive)	7.08 µM (inactive)	3.12 µM (inactive)	0.342 µM (active)	3.08 µM (inactive)	2.29 µM (inactive)	14.8 µM (inactive)
CCOC(=O)/C(=C\c1ccnc2ccccc12)P(=O)(OCC)OCC	1.99 µM (inactive)	2.16 µM (inactive)	5.89 µM (inactive)	1.57 µM (inactive)	2.3 µM (inactive)	4.65 µM (inactive)	3.48 µM (inactive)	2.26 µM (inactive)	2.53 µM (inactive)	2.99 µM (inactive)	2.52 µM (inactive)	4.43 µM (inactive)	2.9 µM (inactive)	3.73 µM (inactive)	2.17 µM (inactive)		1.47 µM (inactive)
CCOC(=O)C1=CC(C)(C(=O)OCC)Nc2c(nc(OC)[nH]c2=O)N1 (stereo unspecified)	> 10 µM (inactive)	> 10 µM (inactive)	> 10 µM (inactive)	> 10 µM (inactive)	> 10 µM (inactive)	> 10 µM (inactive)	> 10 µM (inactive)	> 10 µM (inactive)	> 10 µM (inactive)	> 10 µM (inactive)	> 10 µM (inactive)	> 10 µM (inactive)	> 10 µM (inactive)	> 10 µM (inactive)	> 10 µM (inactive)		> 10 µM (inactive)
